Test results published in patent publication US20180141939A1, “SOLID FORMS OF A BET INHIBITOR” (Gilead Sciences, Inc., priority 2016, published 2018).
Where a name gives a salt, the structure may show the parent alone.

Assays:
Format in all cases: physicochemical
[1] = Dynamic vapor sorption (DVS) moisture uptake; settings: for moisture uptake (DVS): at about 90% RH; for hygroscopicity (DVS analysis): classification in words
[2] = Kinetic aqueous solubility / solubility in water of salt and co-crystal forms
[3] = Aqueous vapor stress (high humidity stress, about 85% RH), deliquescence; settings: for deliquescence at elevated RH: elevated relative humidity; for deliquescence when stressed at about 85% RH: about 24 h where stated
Protocol: Crystalline forms of Compound I were analyzed by at least one of X-ray powder diffraction (XRPD), differential scanning calorimetry (DSC), thermogravimetric analysis (TGA), dynamic vapor sorption (DVS), solution proton nuclear magnetic resonance spectroscopy (^1H NMR), KF titration, and aqueous vapor stress experiments. XRPD patterns of Compound I were collected with a PANalytical X'Pert PRO MPD diffractometer using mostly the following experimental setting: 45 kV, 40 mA, Kα1=1.5406 Å, scan range 2-40° 2θ, step size 0.0167° 2θ. The DSC analysis was conducted on a TA Instruments Q2000 differential scanning calorimeter using 10° C./min heating rate over the 20° C. to 250° C. temperature range or above. The TGA analysis was conducted on a TA Instruments 2950 thermogravimetric analyzer using a 10° C./min heating rate over the 20° C. to 350° C. temperature range. ^1H NMR spectra were acquired with an Agilent DD2-400 spectrometer using DMSO-d6 with tetramethylsilane (TMS). KF analysis was performed using a Mettler Toledo DL39 Karl Fischer titrator with a Stromboli drying oven attachment set at about 110° C. Aqueous vapor stress experiments were conducted by placing a sample in a 85% RH jar for a specified duration.

[4] = Relative stability of solid forms (competitive slurries); settings: for thermodynamic / physical stability of the solid form: statement in words

Compound	kinetic aqueous solubility [2]	deliquescence when stressed at about 85% RH [3]	other results
Cc1noc(C)c1-c1cc(C(O)(c2ccccn2)c2ccccn2)c2nc(C3CC3)[nH]c2c1 [Compound I mesylate Material G, (2-cyclopropyl-6-(3,5-dimethylisoxazol-4-yl)-1H-benzo[d]imidazol-4-yl)di(pyridin-2-yl)methanol]	–	–	moisture uptake (DVS) [1]: about 25%; hygroscopicity (DVS analysis) [1]: very hygroscopic
Cc1noc(C)c1-c1cc(C(O)(c2ccccn2)c2ccccn2)c2nc(C3CC3)[nH]c2c1 [Compound I mesylate Material C, (2-cyclopropyl-6-(3,5-dimethylisoxazol-4-yl)-1H-benzo[d]imidazol-4-yl)di(pyridin-2-yl)methanol]	about 13 mg/mL	–	deliquescence at elevated RH [3]: a tendency to deliquesce
Cc1noc(C)c1-c1cc(C(O)(c2ccccn2)c2ccccn2)c2nc(C3CC3)[nH]c2c1 [Compound I HCl Material B, (2-cyclopropyl-6-(3,5-dimethylisoxazol-4-yl)-1H-benzo[d]imidazol-4-yl)di(pyridin-2-yl)methanol]	about 6 mg/mL	evidence of deliquescence	–
Cc1noc(C)c1-c1cc(C(O)(c2ccccn2)c2ccccn2)c2nc(C3CC3)[nH]c2c1 [Compound I tartrate Material A, (2-cyclopropyl-6-(3,5-dimethylisoxazol-4-yl)-1H-benzo[d]imidazol-4-yl)di(pyridin-2-yl)methanol]	about 15 mg/mL	does not deliquesce	–
Cc1noc(C)c1-c1cc(C(O)(c2ccccn2)c2ccccn2)c2nc(C3CC3)[nH]c2c1 [Compound I Form II, (2-cyclopropyl-6-(3,5-dimethylisoxazol-4-yl)-1H-benzo[d]imidazol-4-yl)di(pyridin-2-yl)methanol]	–	–	thermodynamic / physical stability of the solid form [4]: unstable mono-IPA solvate that may convert to Compound I Form I at ambient conditions
Cc1noc(C)c1-c1cc(C(O)(c2ccccn2)c2ccccn2)c2nc(C3CC3)[nH]c2c1 [Compound I Form I, (2-cyclopropyl-6-(3,5-dimethylisoxazol-4-yl)-1H-benzo[d]imidazol-4-yl)di(pyridin-2-yl)methanol]	–	–	moisture uptake (DVS) [1]: about 0.4%; hygroscopicity (DVS analysis) [1]: slightly hygroscopic; thermodynamic / physical stability of the solid form [4]: most thermodynamically stable form of Compound I
Cc1noc(C)c1-c1cc(C(O)(c2ccccn2)c2ccccn2)c2nc(C3CC3)[nH]c2c1 [Compound I mesylate Material A, (2-cyclopropyl-6-(3,5-dimethylisoxazol-4-yl)-1H-benzo[d]imidazol-4-yl)di(pyridin-2-yl)methanol]	about 5 mg/mL	–	deliquescence at elevated RH [3]: shows evidence of deliquescence
Cc1noc(C)c1-c1cc(C(O)(c2ccccn2)c2ccccn2)c2nc(C3CC3)[nH]c2c1 [mixture of Compound I sulfate Material A and Compound I sulf] [(2-cyclopropyl-6-(3,5-dimethylisoxazol-4-yl)-1H-benzo[d]imidazol-4-yl)di(pyridin-2-yl)methanol]	about 4 mg/mL	–	–
Cc1noc(C)c1-c1cc(C(O)(c2ccccn2)c2ccccn2)c2nc(C3CC3)[nH]c2c1 [Compound I phosphate Form IV, (2-cyclopropyl-6-(3,5-dimethylisoxazol-4-yl)-1H-benzo[d]imidazol-4-yl)di(pyridin-2-yl)methanol]	–	–	relative stability in competitive slurries with Compound I phosphate Form I ([4]; MeOH/EtOAc solvent system): complete conversion of Compound I phosphate Form IV to Compound I phosphate Form I
Cc1noc(C)c1-c1cc(C(O)(c2ccccn2)c2ccccn2)c2nc(C3CC3)[nH]c2c1 [Compound I besylate Material A, (2-cyclopropyl-6-(3,5-dimethylisoxazol-4-yl)-1H-benzo[d]imidazol-4-yl)di(pyridin-2-yl)methanol]	about 1 mg/mL	does not show any signs of deliquescence	–
Cc1noc(C)c1-c1cc(C(O)(c2ccccn2)c2ccccn2)c2nc(C3CC3)[nH]c2c1 [Compound I tosylate Form I, (2-cyclopropyl-6-(3,5-dimethylisoxazol-4-yl)-1H-benzo[d]imidazol-4-yl)di(pyridin-2-yl)methanol]	about 3 mg/mL	does not show any evidence of deliquescence	–
Cc1noc(C)c1-c1cc(C(O)(c2ccccn2)c2ccccn2)c2nc(C3CC3)[nH]c2c1 [Compound I sulfate Material A, (2-cyclopropyl-6-(3,5-dimethylisoxazol-4-yl)-1H-benzo[d]imidazol-4-yl)di(pyridin-2-yl)methanol]	about 4 mg/mL	no evidence of deliquescence	–
Cc1noc(C)c1-c1cc(C(O)(c2ccccn2)c2ccccn2)c2nc(C3CC3)[nH]c2c1 [Compound I edisylate Material A, (2-cyclopropyl-6-(3,5-dimethylisoxazol-4-yl)-1H-benzo[d]imidazol-4-yl)di(pyridin-2-yl)methanol]	about 1 mg/mL	does not show any signs of deliquescence	–
Cc1noc(C)c1-c1cc(C(O)(c2ccccn2)c2ccccn2)c2nc(C3CC3)[nH]c2c1 [Compound I gentisate Material A, (2-cyclopropyl-6-(3,5-dimethylisoxazol-4-yl)-1H-benzo[d]imidazol-4-yl)di(pyridin-2-yl)methanol]	–	does not deliquesce	–
Cc1noc(C)c1-c1cc(C(O)(c2ccccn2)c2ccccn2)c2nc(C3CC3)[nH]c2c1 [Compound I phosphate Form III, (2-cyclopropyl-6-(3,5-dimethylisoxazol-4-yl)-1H-benzo[d]imidazol-4-yl)di(pyridin-2-yl)methanol]	–	–	solubility ([2]; water): ~6000 µg/mL; moisture uptake (DVS) [1]: about 0.7%; hygroscopicity (DVS analysis) [1]: slightly hygroscopic
Cc1noc(C)c1-c1cc(C(O)(c2ccccn2)c2ccccn2)c2nc(C3CC3)[nH]c2c1 [Compound I sulfate Material B, (2-cyclopropyl-6-(3,5-dimethylisoxazol-4-yl)-1H-benzo[d]imidazol-4-yl)di(pyridin-2-yl)methanol]	about 4 mg/mL	no evidence of deliquescence	–
Cc1noc(C)c1-c1cc(C(O)(c2ccccn2)c2ccccn2)c2nc(C3CC3)[nH]c2c1 [Compound I phosphate Form II, (2-cyclopropyl-6-(3,5-dimethylisoxazol-4-yl)-1H-benzo[d]imidazol-4-yl)di(pyridin-2-yl)methanol]	–	–	hygroscopicity (DVS analysis) [1]: moderately hygroscopic; relative stability in competitive slurries with Compound I phosphate Form I ([4]; MeOH/IPA, MeOH/EtOAc or MeOH/IPAc, overnight slurry at RT): less stable than Compound I phosphate Form I at ambient conditions
Cc1noc(C)c1-c1cc(C(O)(c2ccccn2)c2ccccn2)c2nc(C3CC3)[nH]c2c1 [Compound I xinafoate Form I, (2-cyclopropyl-6-(3,5-dimethylisoxazol-4-yl)-1H-benzo[d]imidazol-4-yl)di(pyridin-2-yl)methanol]	–	does not deliquesce	–
Cc1noc(C)c1-c1cc(C(O)(c2ccccn2)c2ccccn2)c2nc(C3CC3)[nH]c2c1 [Compound I phosphate Form V, (2-cyclopropyl-6-(3,5-dimethylisoxazol-4-yl)-1H-benzo[d]imidazol-4-yl)di(pyridin-2-yl)methanol]	–	–	relative stability in competitive slurries with Compound I phosphate Form I ([4]; MeOH/EtOAc solvent system): complete conversion of Compound I phosphate Form V to Compound I phosphate Form I
Cc1noc(C)c1-c1cc(C(O)(c2ccccn2)c2ccccn2)c2nc(C3CC3)[nH]c2c1 [Compound I napsylate Material A, (2-cyclopropyl-6-(3,5-dimethylisoxazol-4-yl)-1H-benzo[d]imidazol-4-yl)di(pyridin-2-yl)methanol]	–	does not deliquesce	–
